From PubChem BioAssay AID1963959 (Molecular Pharmacology Branch, DTP, NCI, 2024)
“And” between values parts separate entries of the source, which are not always exact repeats. Equal entries are not always repeated.

Tested on: T-47D spheroids with HUVEC/MSC, viability
Experiment: Anticancer human tumor T-47D cell line growth inhibition [PI3K];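 further: spheroids exposed to agents for seven days before reading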;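 on viability, T/C: percent of DMSO vehicle control luminescence so 100% = untreated growth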
Conditions: for viability, T/C: stronger effect = lower value
Excerpt: Combinatorial screen of targeted agents with the PI3K inhibitors inavolisib, alpelisib, duvelisib, and copanlisib in multi-cell type tumor spheroids
A high-throughput screen of multi-cell type tumor spheroids was designed to identify active combinations of targeted small molecules and PI3K pathway inhibitors. Complex spheroids include a stromal component modeled by human endothelial cells (HUVEC) and fibroblasts modeled by human mesenchymal stem cells (MSCs). The concentration ranges selected for each drug and investigational agent were based upon clinically achievable concentrations if the clinical Cmax of the agent was known.
Compounds. The drugs and investigational agents: inavolisib (NSC800729), alpelisib (NSC765974), duvelisib (NSC772469), copanlisib (NSC816437), ipatasertib (NSC767898), afuresertib (NSC778305), talazoparib (NSC767125), sapanisertib (NSC764658), selumetinib (NSC741078), tovorafenib (DAY101, NSC766906), vemurafenib (NSC761431), ravoxertinib (NSC781343), sotorasib (NSC818433), MRTX1133 (NSC 836407), abemaciclib (NSC 768073), palbociclib (NSC758247), venetoclax (NSC 766270), SY5609 (NSC837396), enzalutamide (NSC755605), and darolutamide (NSC825331), were obtained from the National Cancer Institute (NCI) Developmental Therapeutics Program Chemical Repository. The FDA-approved anticancer drug set is available from the NCI Developmental Therapeutics Program. […] The stock solutions were prepared in dimethyl sulfoxide (DMSO, Sigma-Aldrich, St. Louis, MO, cat. D2650) at 800-fold the tested concentration and stored at -70 degrees C prior to their use. All drugs and investigational agents were tested over a range starting from a high concentration at or near the clinical Cmax and decreasing in half-log increments. If the clinical Cmax for an agent had not been determined, the highest concentration tested was 10 microM.
Cell Culture. All cells were maintained in an incubator at 37 degrees C and 5% CO2 with 95% humidity. The PDC lines were cultured according to standard operating procedures established by the NCI PDMR (https://pdmr.cancer.gov/sops/default.htm). All PDCs were thawed and cultured in Matrigel-coated flasks prepared with a working solution of 1X Ham's F-12 nutrient mix, without supplementation (Invitrogen, Waltham, MA, cat. 11765054), 100 U/mL penicillin-streptomycin (Invitrogen, cat. 15140122), and 2.5% Matrigel (Corning Inc., Corning, NY, cat. 354248) for the first three passages. The 354836-022-R-J1-PDC, 475296-252-R-J1-PDC, and 997726-040-R-J2-PDC lines were cultured in 6A media, which includes advanced DMEM/F-12 (Thermo Fisher Scientific, cat. 12634028), 10 mM HEPES (Thermo Fisher Scientific, cat. 15630080), 1X GlutaMAX supplement (Thermo Fisher Scientific, cat. 35050061), 0.1 mg/mL primocin (InvivoGen, San Diego, CA, cat. ant-pm-2), 10% defined fetal bovine serum, heat inactivated (HyClone Laboratories Inc., Logan, UT, cat. SH30070.03HI), 50% L-WRN conditioned media (ATCC, cat. CRL-3276), 1.25 mM N-Acetyl-L-cysteine (Sigma-Aldrich, cat. A9165), 10 mM nicotinamide (Sigma-Aldrich, cat. N0636), 1X B-27 supplement (Thermo Fisher Scientific, cat. 17504044), 1X N-2 supplement (Thermo Fisher Scientific, cat. 17502048), and 10 microM Y-27632 dihydrochloride (Tocris Bioscience, Bristol, United Kingdom, cat. 1254). The 624824-186-R-J2-PDC line was cultured in 6C/Colon 1B media, which includes all 6A media components plus 50 ng/mL human EGF recombinant protein (Thermo Fisher Scientific, cat. PHG0311). […]

CC1(C)CCC(Nc2ncc(C(F)(F)F)c(-c3c[nH]c4c(P(C)(C)=O)c(C#N)ccc34)n2)CN1 (centres undefined)
viability, T/C (compound 0.0316 µM): 66% (2×) and 68.7% and 70.4%
viability, T/C (compound 0.1 µM): 72% [middle of 4 runs]
viability, T/C (compound 0.316 µM): 69.9% [middle of 4 runs]
viability, T/C (compound 1 µM): 79.7% [middle of 4 runs]
viability, T/C (compound 3.16 µM): 79.9% [middle of 4 runs]
viability, T/C (compound 10 µM): 54.5% (2×) and 54.6% and 58.2%
IC50 (curve of compound): > 10 µM

C#Cc1c(F)ccc2cc(O)cc(-c3ncc4c(N5CC6CCC(C5)N6)nc(OCC56CCCN5CC(F)C6)nc4c3F)c12 (centres undefined) + COc1c(OCCCN2CCOCC2)ccc2c3n(c(=NC(=O)c4cnc(N)nc4)nc12)CCN3
IC50 (curve of first compound, second compound 0.00316 µM): > 10 µM
IC50 (curve of first compound, second compound 0.01 µM): > 10 µM
IC50 (curve of first compound, second compound 0.0316 µM): > 10 µM
IC50 (curve of first compound, second compound 0.1 µM): < 0.0316 µM
IC50 (curve of first compound, second compound 0.316 µM): < 0.0316 µM
IC50 (curve of first compound, second compound 1 µM): < 0.0316 µM
viability, T/C (second compound 0.00316 µM, first compound 0.0316 µM): 102%
viability, T/C (second compound 0.00316 µM, first compound 0.1 µM): 93.1%
viability, T/C (second compound 0.00316 µM, first compound 0.316 µM): 93%
viability, T/C (second compound 0.00316 µM, first compound 1 µM): 82.5%
viability, T/C (second compound 0.00316 µM, first compound 3.16 µM): 116%
viability, T/C (second compound 0.00316 µM, first compound 10 µM): 109%
viability, T/C (second compound 0.01 µM, first compound 0.0316 µM): 95.1%
viability, T/C (second compound 0.01 µM, first compound 0.1 µM): 99.9%
viability, T/C (second compound 0.01 µM, first compound 0.316 µM): 105%
viability, T/C (second compound 0.01 µM, first compound 1 µM): 99.5%
viability, T/C (second compound 0.01 µM, first compound 3.16 µM): 114%
viability, T/C (second compound 0.01 µM, first compound 10 µM): 111%
viability, T/C (second compound 0.0316 µM, first compound 0.0316 µM): 80.5%
viability, T/C (second compound 0.0316 µM, first compound 0.1 µM): 78.8%
viability, T/C (second compound 0.0316 µM, first compound 0.316 µM): 79.8%
viability, T/C (second compound 0.0316 µM, first compound 1 µM): 84.8%
viability, T/C (second compound 0.0316 µM, first compound 3.16 µM): 79.2%
viability, T/C (second compound 0.0316 µM, first compound 10 µM): 87.5%
viability, T/C (second compound 0.1 µM, first compound 0.0316 µM): 45.1%
viability, T/C (second compound 0.1 µM, first compound 0.1 µM): 46.4%
viability, T/C (second compound 0.1 µM, first compound 0.316 µM): 46.8%
viability, T/C (second compound 0.1 µM, first compound 1 µM): 49.2%
viability, T/C (second compound 0.1 µM, first compound 3.16 µM): 39.6%
viability, T/C (second compound 0.1 µM, first compound 10 µM): 49.5%
viability, T/C (second compound 0.316 µM, first compound 0.0316 µM): 20.2%
viability, T/C (second compound 0.316 µM, first compound 0.1 µM): 14.5%
viability, T/C (second compound 0.316 µM, first compound 0.316 µM): 20.5%
viability, T/C (second compound 0.316 µM, first compound 1 µM): 22.3%
viability, T/C (second compound 0.316 µM, first compound 3.16 µM): 22.3%
viability, T/C (second compound 0.316 µM, first compound 10 µM): 27.1%
viability, T/C (second compound 1 µM, first compound 0.0316 µM): 7.11%
viability, T/C (second compound 1 µM, first compound 0.1 µM): 6.61%
viability, T/C (second compound 1 µM, first compound 0.316 µM): 8.19%
viability, T/C (second compound 1 µM, first compound 1 µM): 8.13%
viability, T/C (second compound 1 µM, first compound 3.16 µM): 5.78%
viability, T/C (second compound 1 µM, first compound 10 µM): 9.52%
